What was measured:
recombinant HSP70 = recombinant HSP70 (Homo sapiens, UniProt P0DMV8); assay: HSP70 chaperone activity, protein thermolability (aggregation) assay; format: biochemical; settings: 1 μM, heat shock 55° C., 1 h, recombinant HSP70 10 ng
Experimental: FIG. 2: Small molecules hits A, B and C inhibit HSP70 chaperone activity. A) Protein aggregation was determined in the presence or absence of recombinant HSP70 (10 ng). When indicated A18 or molecules A, B and C were added (1 μM). B) Protein aggregation was determined in the presence or absence of recombinant HSP70, HSC70 or HSP90 (10 ng).
When indicated A18 or molecules A, B and C were added (1 μM). A0, a non-relevant peptide aptamer was used here as a negative control. Values are normalized for each HSP. 100% chaperone effect being the inhibition of protein aggregation induced by addition of the recombinant chaperones.
HSP70 chaperone activity was evaluated with a protein thermolability assay. HSF1−/− MEFs extracts were incubated 20 minutes on ice in lysis buffer (50 mM HEPES, 150 mM NaCl, 5 mM EDTA, 0.1% NP40) supplemented with protease inhibitors (Roche, France). […]
Cellular extracts, to which recombinant HSP70, HSP90 or HSC70 were added with or without the small molecules to test, were diluted to a final concentration of 2 mg. mL-1 in pH 7 Tris-HCl buffer and heated at 55° C. during 1 hour. After g−16,000 centrifugation at 4° C. during 10 minutes, supernatant native protein quantity was determined by Lowry method (Dc Assay Kits, Bio-Rad). This final protein concentration was then compared to the initial protein concentration in supernatants to quantify denatured proteins. […]

HSP70/A18 interaction [1] = target: T1, HSP70/A18 interaction (Homo sapiens, UniProt P0DMV8); assay: AptaScreen high-throughput yeast two-hybrid dual luminescence screening of A18/HSP70 association; format: cell-based; settings: for IC50: dose-response, inhibition of A18 binding to HSP70; for Confirmation inhibition: hit confirmation; for inhibition at 10 µM: molecules screened at 10 μM
T1 construct: expressed in transfected cells
Experimental: Table 1. High throughput screening of chemical agonists of the A18 peptide aptamer. The screening was based on the ability of the molecules to inhibit the association A18/HSP70.
A high-throughput screening assay, AptaScreen™ (developed by Aptanomics SA; (Baines I C et al. Drug Discov Today. 2006;11:334-341; Rerole A L, et al. Cancer Res 20119;71:484-495)) was performed by the Company Imaxio (Lyon, France) on a library of almost 60,000 small molecules. The AptaScreen™ assay is based on an automated dual luminescence (luc and ruc reporter genes) yeast two-hybrid assay, with HSP70 expressed as a ‘bait’ and A18 aptamer expressed as a ‘prey’. The HSP70/A18 interaction directs the transcription of the luc reporter gene, while in the same assay a control protein/aptamer couple directs the transcription of the ruc reporter. A small molecule can be considered as ‘hit candidate’ when it inhibits the interaction between HSP70 and A18 (i.e. decreases the luciferase signal), but not the control interaction (i.e. no or little change in the ruc signal). Molecules were screened at a concentration of 10 μM and then hit candidates were confirmed by dose-response assays, following the standard protocol (Rerole A L, et al. Cancer Res 20119;71:484-495).
A high-throughput screening assay, AptaScreen™ (developed by Aptanomics SA; ^22,23), was performed by the Company Imaxio (Lyon, France) on a library of almost 60,000 small molecules including most of the marketed drugs. The AptaScreen™ assay is based on an automated dual luminescence (luc and ruc reporter genes) yeast two-hybrid assay, with HSP70 expressed as a ‘bait’ and a peptide aptamer (A18), the inventors previously isolated that bound to the ATP domain of HSP70 expressed as a ‘prey’ (Rerole A L, et al. Cancer Res 20119;71:484-495). A small molecule can be considered as ‘hit candidate’ when it inhibits the interaction between HSP70 and A18 (i.e. decreases the luciferase signal). Molecules were screened at a concentration of 10 μM. Eight molecules (hit candidates) were initially identified. From the dose-response studies, three of them were retained on the basis of their specificity and high inhibitory activity against A18 binding to HSP70 (Table 1 and 2).

HSP70/A18 interaction [2] = target: T1, HSP70/A18 interaction; assay: Ability to block HSP70/A18 interaction (Biacore); format: binding; settings: block of HSP70/A18 interaction; read-out: Activity profil/50% effective concentration (EC50)
Source text: Table 2. Selected “Hits” with high inhibitory activity against A18 binding to HSP70. Their chemical structure is shown as well as their ability to block HSP70/A18 interaction (Biacore).

[3] = tested on: Human cervix cancer Hela cells; assay: Chemo-sensitization to cisplatin, cell survival colorimetric assay, HeLa; format: cell-based; settings: molecule 2 μM with cisplatin 25 μM, 48 h
Experimental: (§1) FIG. 3. The chemical molecule hits sensitize cancer cells to cisplatin. A) Human cervix HeLa or B) mouse colorectal cancer CT-26 cells were incubated during 48 h with cisplatin (25 μM) in the presence of absence of molecules A, B and C (2 μM). Cell survival was measured by a colorimetric assay staining.
(§2) 3.5×10^4 adherent cells were plated onto 24-well culture plates in complete medium. Cells were treated with small molecules at various concentrations (1 μM to 30 μM) for 4 hours to determine cellular IC50. Then, cells of half of each 24-well culture plates were treated with cisplatin (CDDP, 25 μM) for 48 hours. Cell death was measured by the crystal violet colorimetric assay staining.
(§3) To study the effect of the molecules in cancer cells, the inventors used two different cancer cells lines: Human cervix cancer Hela cells and mouse colorectal cancer CT-26. Cells were treated with the small molecule hit (2 μM) either alone or together with cisplatin for 48 hours and cell survival was determined. […] Cells seem to die mainly by apoptosis, as detected by the amount of Annexin V positive/propidium iodide negative cells obtained after treatment with the molecule (FIG. 5). The inventors conclude that the hit candidates block HSP70 chaperone activity and sensitize cancer cells to apoptosis induced by cisplatin.

Solubility (statement) = format: physicochemical
[4] = tested on: mouse colorectal cancer CT-26; assay: Chemo-sensitization to cisplatin, cell survival colorimetric assay, CT-26; format: cell-based; settings: CT-26, molecule 2 μM with cisplatin 25 μM, 48 h
Experimental: as §1, §2, §3

T1 sequence (P0DMV8 whole entry): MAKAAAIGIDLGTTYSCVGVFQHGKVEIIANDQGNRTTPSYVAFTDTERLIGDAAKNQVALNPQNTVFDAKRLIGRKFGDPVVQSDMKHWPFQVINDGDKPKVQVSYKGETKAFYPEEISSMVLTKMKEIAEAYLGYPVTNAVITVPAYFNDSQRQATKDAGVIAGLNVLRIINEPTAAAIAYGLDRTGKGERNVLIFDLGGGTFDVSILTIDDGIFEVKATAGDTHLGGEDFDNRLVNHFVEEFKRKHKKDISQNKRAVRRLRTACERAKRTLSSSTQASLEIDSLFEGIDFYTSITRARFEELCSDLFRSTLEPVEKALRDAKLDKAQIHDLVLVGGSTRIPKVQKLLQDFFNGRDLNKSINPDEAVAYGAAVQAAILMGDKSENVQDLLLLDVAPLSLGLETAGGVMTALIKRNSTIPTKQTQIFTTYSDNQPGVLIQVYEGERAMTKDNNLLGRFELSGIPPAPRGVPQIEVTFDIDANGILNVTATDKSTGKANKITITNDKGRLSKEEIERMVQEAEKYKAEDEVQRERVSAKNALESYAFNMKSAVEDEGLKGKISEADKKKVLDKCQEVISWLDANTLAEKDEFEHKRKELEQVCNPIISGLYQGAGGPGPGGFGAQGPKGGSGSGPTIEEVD
Sequence of recombinant HSP70 (P0DMV8 whole entry): as above

SMILES	Inhibition of HSP70 chaperone activity (recombinant HSP70)	HSP70 specificity (HSP70/A18 interaction [1])	IC50 (HSP70/A18 interaction [1])	Confirmation inhibition (HSP70/A18 interaction [1])	inhibition at 10 µM (HSP70/A18 interaction [1])	EC50 (HSP70/A18 interaction [2])	Cell death induced by cisplatin [3]	Solubility (Solubility (statement))	Cell death induced by cisplatin [4]
O=C1N=C(N2CCCCC2)S/C1=C\c1ccccc1F [Molecule A]	only partially blocked	YES	19.6 µM	34	105%	19.6 µM	–	–	–
CCOc1ccc(C)cc1S(=O)(=O)n1nnc2ccccc21 [Molecule B]	much more important inhibition	YES	0.2 µM	59	105%	0.2 µM	most important effect	hardly soluble	most important effect
